Tests used:
[1] = molecular target: T1, recombinant, purified human Caspase-1 (Homo sapiens, UniProt P29466); experiment: Enzyme assay, caspase inhibition (fluorogenic substrate cleavage); type: biochemical; conditions: second order rate constant of enzyme inactivation; substrate Acetyl-Tyr-Val-Ala-Asp-amino-4-methylcoumarin
T1 sequence (P29466 120-297 limits assumed): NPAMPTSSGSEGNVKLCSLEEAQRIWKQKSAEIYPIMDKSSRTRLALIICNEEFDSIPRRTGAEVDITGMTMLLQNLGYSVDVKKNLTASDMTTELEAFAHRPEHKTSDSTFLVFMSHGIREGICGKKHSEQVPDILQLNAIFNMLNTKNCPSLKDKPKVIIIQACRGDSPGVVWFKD
T1 sequence (P29466 317-404 limits assumed): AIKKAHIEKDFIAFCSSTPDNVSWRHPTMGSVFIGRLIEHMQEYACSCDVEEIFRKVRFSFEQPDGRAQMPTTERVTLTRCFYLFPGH
Source text: (§1) The assays for caspase inhibition are based on the cleavage of a fluorogenic substrate by recombinant, purified human Caspases −1, −3, −7 or −8. The assays are run in essentially the same way as those reported by Garcia-Calvo et al., J. Biol. Chem. 273, 32608-32613 (1998), using a substrate specific for each enzyme. The substrate for Caspase-1 is Acetyl-Tyr-Val-Ala-Asp-amino-4-methylcoumarin and the substrate for Caspases −3, −7 and −8 is Acetyl-Asp-Glu-Val-Asp-amino-4-methylcoumarin both as disclosed in Garcia-Calvo et al., J. Biol. Chem. 273, 32608-32613 (1998).
(§2) The observed rate of enzyme inactivation at a particular inhibitor concentration, kobs, is computed by direct fits of the data to the equation derived by Thornberry et al., Biochemistry, 33, […] (1994) using a nonlinear least-squares analysis computer program (PRISM 2.0; GraphPad software). To obtain the second order rate constant, kinact, kobs values are plotted against their respective inhibitor concentrations and kinact values are subsequently calculated by computerized linear regression.
(§3) Compounds with kinact(M^−1s^−1)>500000 are listed as “A”. Compounds with kinact(M^−1s^−1) between 100000 and 500000 are listed as “B”. Compounds with kinact(M^−1s^−1)<100000 are listed as “C”.

[2] = molecular target: T2, recombinant, purified human Caspase-3 (Homo sapiens, UniProt P42574); experiment: as above; type: biochemical; conditions: second order rate constant of enzyme inactivation; substrate Acetyl-Asp-Glu-Val-Asp-amino-4-methylcoumarin
T2 sequence (P42574 29-175 limits assumed): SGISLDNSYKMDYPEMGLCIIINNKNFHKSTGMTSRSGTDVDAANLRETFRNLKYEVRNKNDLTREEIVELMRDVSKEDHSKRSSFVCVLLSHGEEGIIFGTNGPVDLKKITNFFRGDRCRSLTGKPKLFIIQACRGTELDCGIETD
T2 sequence (P42574 176-277 limits assumed): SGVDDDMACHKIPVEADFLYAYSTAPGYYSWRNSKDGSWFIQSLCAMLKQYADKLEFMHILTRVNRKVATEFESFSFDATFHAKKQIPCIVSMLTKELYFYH
Source text: as §1, §2, §3

[3] = molecular target: recombinant, purified human Caspase-8 (Homo sapiens, UniProt Q14790); experiment: as above; type: biochemical; conditions: second order rate constant of enzyme inactivation; substrate Acetyl-Asp-Glu-Val-Asp-amino-4-methylcoumarin
Source text: as §1, §2, §3

[4] = system: IL-1β secretion from human whole blood; experiment: Inhibition of IL-1β secretion from whole blood; type: cell-based; conditions: human whole blood diluted 1:2 in PBS, LPS 5 ng/ml, 18 hours, ELISA
Method: Human blood is freshly drawn from healthy donors and diluted 1:2 in PBS. To 500 μl of diluted blood […] of prediluted test compound in RPMI medium and […] LPS (5 ng/ml final concentration on the plate) are added (LPS, Serotype 0111:B4, Sigma L3012). After stimulation for 18 hours supernatants are collected and assayed for IL-1β levels using the appropriate ELISA kit (R&D systems).
Compounds with an IC50>10 μM are listed as “A”. Compounds with an IC50 between 1 μM and 10 uM are listed as “B”. Compounds with an IC50<1 μM are listed as “C”.

[5] = system: rat cortical neurons; experiment: Hypoxia-induced apoptosis of rat cortical neurons; type: cell-based, Wistar rat; conditions: Cortical neurone, oxygen-depleted serum-free medium, Cell Death Detection ELISA (DNA fragmentation)
Method: Cortical neurons are dissociated from Wistar rat embryos (E17) by a modification of the procedure of Rogers et al., Brain Res. Bulletin, 44:131 (1998). Briefly, cerebral cortices are isolated aseptically from 15-20 Wistar rat embryos. A cell suspension is prepared by mincing the cerebral cortices and digesting them with papain. Cells are washed with ovomucoid enzyme inhibitor and DNaseI and plated onto Poly-D lysine coated plates in high glucose DMEM containing 10% heat-inactivated fetal calf serum, L-glutamine, penicillin and streptomycin. The yield of neurons is […] per embryo and they are 80-90% viable as assessed by Trypan blue exclusion.
The neurons are cultured in complete medium at 37° C. in a normal atmosphere for 48 hours prior to the hypoxia experiments. For hypoxia, the normal cell medium is replaced by oxygen-depleted serum-free medium. Cells are incubated in an atmosphere of 95% N2/5% CO2 for various lengths of time. Compounds are dissolved in DMSO at 100 mM then diluted in medium and added to the culture from time=0. The level of apoptosis is measured using a Cell Death Detection ELISA kit (Roche) which detects DNA fragmentation. Plates are read at 405 nm. Controls included cells cultured in aerobic conditions in serum-containing medium (+serum) and cells cultured in aerobic conditions in serum-deprived medium (−serum).
Compounds with an IC50>0.5 μM are listed as “A”. Compounds with an IC50 between 0.1 μM and 0.5 uM are listed as “B”. Compounds with an IC50<0.1 μM are listed as “C”.

Sequence of recombinant, purified human Caspase-8 (Q14790 217-374 limits assumed): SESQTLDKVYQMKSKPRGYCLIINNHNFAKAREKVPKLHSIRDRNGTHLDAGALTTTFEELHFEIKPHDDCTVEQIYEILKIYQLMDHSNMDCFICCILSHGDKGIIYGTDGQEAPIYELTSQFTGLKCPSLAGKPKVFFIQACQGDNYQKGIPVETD
Sequence of recombinant, purified human Caspase-8 (Q14790 385-479 limits assumed): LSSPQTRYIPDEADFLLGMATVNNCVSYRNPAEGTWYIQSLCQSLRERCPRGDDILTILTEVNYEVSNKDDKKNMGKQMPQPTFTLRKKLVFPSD

| Compound | kinact Caspase-1 [1] | kinact Caspase-3 [2] | kinact Caspase-8 [3] | IC50 [4] [nM] | IC50 [5] [nM] |
| --- | --- | --- | --- | --- | --- |
| CC[C@@H](C(=O)NC(CC(=O)O)C(=O)CF)n1ccc2ccc(Cl)cc2c1=O (mixture of isomers) [Compound 1, (S)-3-[2-(7-chloro-1-oxo-1H-isoquinolin-2-yl)-butyrylamino]-5-fluoro-4-oxo-pentanoic acid] | A (Compounds with kinact(M^−1s^−1)>500000 are listed as “A”) | A (Compounds with kinact(M^−1s^−1)>500000 are listed as “A”) | B (Compounds with kinact(M^−1s^−1) between 100000 and 500000 are listed as “B”) | < 1000 | 100 to 500 |
| CCCSc1ccc2ncn([C@@H](CC)C(=O)NC(CC(=O)O)C(=O)CF)c(=O)c2c1 (stereo partly drawn) [Compound 22, 5-Fluoro-4-oxo-3-[(2S)-2-(4-oxo-6-propylsulfanyl-4H-quinazolin-3-yl)-butyrylamino]-pentanoic acid] | A (Compounds with kinact(M^−1s^−1)>500000 are listed as “A”) | A (Compounds with kinact(M^−1s^−1)>500000 are listed as “A”) | A (Compounds with kinact(M^−1s^−1)>500000 are listed as “A”) | < 1000 | > 500 |
| CC[C@@H](C(=O)N[C@@H](CC(=O)O)C(=O)COc1c(F)c(F)cc(F)c1F)n1ccc2ccc(C(F)(F)F)cc2c1=O [Compound 19, (S,S)-3-[2-(7-trifluoromethyl-1-oxo-1H-isoquinolin-2-yl)-butyrylamino]-4-oxo-5-(2,3,5,6-tetrafluoro-phenoxy)-pentanoic acid] | A (Compounds with kinact(M^−1s^−1)>500000 are listed as “A”) | A (Compounds with kinact(M^−1s^−1)>500000 are listed as “A”) | C (Compounds with kinact(M^−1s^−1)<100000 are listed as “C”) | 1000 to 10000 | < 100 |
| CC[C@@H](C(=O)N[C@@H](CC(=O)O)C(=O)COc1c(F)c(F)cc(F)c1F)n1ccc2ccc(Cl)cc2c1=O [Compound 10, (S,S)-3-[2-(7-chloro-1-oxo-1H-isoquinolin-2-yl)-butyrylamino]-4-oxo-5-(2,3,5,6-tetrafluoro-phenoxy)-pentanoic acid] | A (Compounds with kinact(M^−1s^−1)>500000 are listed as “A”) | A (Compounds with kinact(M^−1s^−1)>500000 are listed as “A”) | C (Compounds with kinact(M^−1s^−1)<100000 are listed as “C”) | 1000 to 10000 | < 100 |
| CC[C@@H](C(=O)NC(CC(=O)O)C(=O)CF)n1cnc2ccc(Sc3ccccc3)cc2c1=O (stereo partly drawn) [Compound 16, 5-Fluoro-4-oxo-3-[(2S)-2-(4-oxo-6-phenylsulfanyl-4H-quinazolin-3-yl)-butyrylamino]-pentanoic acid] | A (Compounds with kinact(M^−1s^−1)>500000 are listed as “A”) | A (Compounds with kinact(M^−1s^−1)>500000 are listed as “A”) | A (Compounds with kinact(M^−1s^−1)>500000 are listed as “A”) | 1000 to 10000 | 100 to 500 |
| CC[C@@H](C(=O)N[C@@H](CC(=O)O)C(=O)COc1c(F)c(F)cc(F)c1F)n1cnc2ccccc2c1=O [Compound 6, (S,S)-4-Oxo-3-[2-(4-oxo-4H-quinazolin-3-yl)-butyrylamino]-5-(2,3,5,6-tetrafluoro-phenoxy)pentanoic acid] | B (Compounds with kinact(M^−1s^−1) between 100000 and 500000 are listed as “B”) | A (Compounds with kinact(M^−1s^−1)>500000 are listed as “A”) | C (Compounds with kinact(M^−1s^−1)<100000 are listed as “C”) | 1000 to 10000 | 100 to 500 |
| CC[C@@H](C(=O)NC(CC(=O)O)C(=O)CF)n1ccc2cc(C(F)(F)F)ccc2c1=O (stereo in doubt) [Compound 4, (S)-3-[2-(6-trifluoromethyl-1-oxo-1H-isoquinolin-2-yl)-butyrylamino]-5-fluoro-4-oxo-pentanoic acid] | B (Compounds with kinact(M^−1s^−1) between 100000 and 500000 are listed as “B”) | B (Compounds with kinact(M^−1s^−1) between 100000 and 500000 are listed as “B”) | C (Compounds with kinact(M^−1s^−1)<100000 are listed as “C”) | 1000 to 10000 | > 500 |
| CC[C@@H](C(=O)NC(CC(=O)O)C(=O)CF)n1ccc2ccc(C(F)(F)F)cc2c1=O (mixture of isomers) [Compound 2, (S)-3-[2-(7-trifluoromethyl-1-oxo-1H-isoquinolin-2-yl)-butyrylamino]-5-fluoro-4-oxo-pentanoic acid] | A (Compounds with kinact(M^−1s^−1)>500000 are listed as “A”) | A (Compounds with kinact(M^−1s^−1)>500000 are listed as “A”) | A (Compounds with kinact(M^−1s^−1)>500000 are listed as “A”) | < 1000 | > 500 |
| CC[C@@H](C(=O)N[C@@H](CC(=O)O)C(=O)COc1c(F)c(F)cc(F)c1F)n1ccc2ccccc2c1=O [Compound 9, (S,S)-3-[2-(1-oxo-1H-isoquinolin-2-yl)-butyrylamino]-4-oxo-5-(2,3,5,6-tetrafluoro-phenoxy)-pentanoic acid] | B (Compounds with kinact(M^−1s^−1) between 100000 and 500000 are listed as “B”) | B (Compounds with kinact(M^−1s^−1) between 100000 and 500000 are listed as “B”) | C (Compounds with kinact(M^−1s^−1)<100000 are listed as “C”) | > 10000 | 100 to 500 |
| CC[C@@H](C(=O)N[C@@H](CC(=O)O)C(=O)COc1c(F)ccc(F)c1F)n1cnc2ccccc2c1=O [Compound 8, (S,S)-4-Oxo-3-[2-(4-oxo-4H-quinazolin-3-yl)-butyrylamino]-5-(2,5,6-trifluoro-phenoxy)-pentanoic acid] | B (Compounds with kinact(M^−1s^−1) between 100000 and 500000 are listed as “B”) | B (Compounds with kinact(M^−1s^−1) between 100000 and 500000 are listed as “B”) | C (Compounds with kinact(M^−1s^−1)<100000 are listed as “C”) | 1000 to 10000 | 100 to 500 |
| CC[C@@H](C(=O)N[C@@H](CC(=O)O)C(=O)COc1c(F)c(F)cc(F)c1F)n1cnc2ccc(Cl)cc2c1=O [Compound 5, (S,S)-3-[2-(6-Chloro-4-oxo-4H-quinazolin-3-yl)-butyrylamino]-4-oxo-5-(2,3,5,6-tetrafluoro-phenoxy)pentanoic acid] | A (Compounds with kinact(M^−1s^−1)>500000 are listed as “A”) | A (Compounds with kinact(M^−1s^−1)>500000 are listed as “A”) | B (Compounds with kinact(M^−1s^−1) between 100000 and 500000 are listed as “B”) | 1000 to 10000 | 100 to 500 |
